Measurements: US20250309306A1, “Cationic Viologen Derivatives and Use Thereof in Redox Flow Batteries” (priority 2024, published 2025)

Key:
Assay type in all cases: physicochemical
Reaction rate (k°) = assay: Reaction rate (k°)
[1] = Water solubility by quantitative NMR; conditions: for solubility: water (D2O), water, thermodynamic from solid
Protocol: The compound to be tested was dissolved in 100 μl D2O until saturation was reached. Any undissolved compound was filtered off and the filtrate was combined with a standard solution containing a known amount of a calibration compound as an internal reference. The sample is investigated using 1H NMR. […] The solubility of the compound to be tested was then calculated from a relative concentration determination based on the known calibration compound concentration.

[2] = Pulse voltammetry (SWV/DPV), three-electrode cell: redox potential of first reduction
[3] = Diffusion coefficient by Levic plot, rotating disk electrode
Protocol: The diffusion coefficient of molecules was measured using Levic plot, obtained using a rotating disk electrode (RDE) setup according to standard procedures.

[4] = Cyclic voltammetry, repeated charging-discharging cycles (integrated area over 100 scans)
[5] = Table 2, Ag/AgCl reference, +0.200 V offset applied, glassy carbon working electrode
[6] = Table 3, comparison of transquat, diquat and annulated diquat

solubility ([1]; Table 2, at 20°C)	Redox Potential (V vs SHE) [2, 5]	Diffusion coefficient (D, in cm^2s^−1) ([3]; Table 2)	Capacity over 100 cycles ([4]; Table 2)	Solubility in water (M, at 20° C.) ([1]; Table 3, at 20° C.)	Redox Potential (V vs SHE) [2, 6]	Diffusion coefficient (D, in cm^2s^−1) ([3]; Table 3)	Capacity over 100 cycles ([4]; Table 3)	Solubility in water (M, at 20°C) ([1]; Table 2, at 20°C)	solubility ([1]; Table 3, at 20° C.)	SMILES	Reaction Rate (k°, in cm/s) (Reaction rate (k°); Table 2)	Reaction Rate (k°, in cm/s) (Reaction rate (k°); Table 3)
> 1500 mM	−0.80 V vs SHE	1.41 × 10^−5 cm^2s^−1	0.99							CCOc1cc2c3[n+](c1)CCc1cc(OCC)c[n+](c1-3)CC2.Cl	0.00615 cm/s	
> 1500 mM	−0.48 V vs SHE	1.62 × 10^−5 cm^2s^−1	0.98	>1500 mM	−0.48 V vs SHE	1.62 × 10^−5 cm^2s^−1	0.98			[Cl-].[Cl-].c1cc2c3[n+](c1)CCc1ccc[n+](c1-3)CC2	0.00764 cm/s	0.00764 cm/s
> 1500 mM	−0.64 V vs SHE	1.63 × 10^−5 cm^2s^−1	0.98							[Cl-].[Cl-].c1cc2c3[n+](c1)CCCc1ccc[n+](c1-3)CCC2	0.0194 cm/s	
	−0.80 V vs SHE	2.5 × 10^−6 cm^2s^−1	0.80					Low		COc1cc[n+]2c3c1CC[n+]1ccc(OC)c(c1-3)CC2.[Cl-].[Cl-]	0.00414 cm/s	
~1000 mM	−0.59 V vs SHE	6.45 × 10^−6 cm^2s^−1	0.95							Cc1cc2c3[n+](c1)CCc1cc(C)c[n+](c1-3)CC2.[Cl-].[Cl-]	0.016 cm/s	
					−0.42 V vs SHE	9.87 × 10^−6 cm^2s^−1	0.98		> 1500 mM	[Br-].[Br-].c1cc2c3[n+](c1)CC[n+]1cccc(c1-3)CC2 [reference compound]		0.00768 cm/s
